These results are taken from ChEMBL document CHEMBL5252601, “Hydroxy-xanthones as promising antiviral agents: Synthesis and biological evaluation against human coronavirus OC43” (Bioorg Med Chem Lett, 2023).

In one series the test system is Human coronavirus OC43. Nature of the series: Antiviral activity against HCoV-OC43 infected in hamster BHK-21 cells assessed as inhibition of viral infectivity per ml at 10 uM measured after 3 days. Format: functional. The conditions noted are these: time 3 day.
The subject of the next series is BHK-21. Nature of the series: Cytotoxicity against hamster BHK-21 cells assessed as reduction in cell viability at 10 uM measured after 3 days. The class given is toxicity, cell-based, Mesocricetus auratus. The conditions noted are these: bhk-21, 72 h, time 3 day.

SMILES strings stand for the structures.

As for `Cc1ccc2oc3cc(O)cc(O)c3c(=O)c2c1`, in the series with Human coronavirus OC43, the “log(activity)” value worked out at 2.79. Further, in the series with BHK-21, the Activity result was “>= 85%”.

Turning to `COc1ccc2c(=O)c3c(O)cc(O)cc3oc2c1`, the “log(activity)” value in the series on Human coronavirus OC43 was determined as 2.67. The Activity entry in the series on BHK-21 is given as “>= 85%”.

Take `O=c1c2ccccc2oc2cc(O)cc(O)c12`: the “log(activity)” value in the series on Human coronavirus OC43 is given as 2.5. Moreover, the Activity entry in the series with BHK-21 is recorded as “>= 85%”.

With `Cc1ccc2c(=O)c3c(O)cc(O)cc3oc2c1`, the “log(activity)” value in the series on Human coronavirus OC43 was found to be 2.42. Moreover, the Activity result in the series with BHK-21 was “>= 85%”.

Take `COc1ccc2oc3cc(O)cc(O)c3c(=O)c2c1`: in the series on Human coronavirus OC43, the “log(activity)” value turned out to be 2.67. The Activity entry in the series with BHK-21 was “>= 85%”.

In the case of `O=c1c2ccc(O)cc2oc2cccc(O)c12`, the “log(activity)” value in the series with Human coronavirus OC43 is recorded as 2.2. For the same molecule, in the series with BHK-21, the Activity result is “>= 85%”.

Regarding `O=c1c2c(O)cccc2oc2cc(O)cc(O)c12`, in the series with Human coronavirus OC43, the “log(activity)” value came to 2. The Activity result with BHK-21 is “>= 85%”.

On to `O=C(c1ccccc1O)c1ccc(O)cc1O`, for which the “log(activity)” value in the series on Human coronavirus OC43 came to 2.45. Further, the Activity result in the series on BHK-21 is reported as “>= 85%”.

For `O=c1c2cc(F)ccc2oc2cc(O)cc(O)c12`, the “log(activity)” value with Human coronavirus OC43 is 2.38. Besides, in the series with BHK-21, the Activity result was “>= 85%”.

On to `O=C(c1ccccc1O)c1ccc(O)c(O)c1O`, for which the “log(activity)” value in the series with Human coronavirus OC43 is recorded as 1.95. For the same molecule, the Activity entry in the series on BHK-21 is given as “>= 85%”.

Turning to `O=c1c2ccccc2oc2c(O)c(O)ccc12` [3,4-DIHYDROXYXANTHONE], the “log(activity)” value with Human coronavirus OC43 amounted to 1.95. Also, the Activity entry in the series with BHK-21 is “>= 85%”.

As to `O=c1c2cc(O)c(O)cc2oc2cc(O)c([C@@H]3O[C@H](CO)[C@@H](O)[C@H](O)[C@H]3O)c(O)c12` [MANGIFERIN], the “log(activity)” value in the series with Human coronavirus OC43 is 3. The Activity entry in the series on BHK-21 is on record as “>= 85%”.

As for `O=c1c2ccccc2oc2ccccc12` [XANTHONE], the “log(activity)” value in the series with Human coronavirus OC43 worked out at 2.04. Also, the Activity entry with BHK-21 is given as “>= 85%”.
